Data taken from patent US20240059735A1, “COMPOSITIONS AND METHODS FOR THE PREVENTION AND TREATMENT OF MIT[…]” (Stealth BioTherapeutics Inc., priority 2016, published 2024).
Where a SMILES comes first, the peptide text is derived from it. [ ]: non-standard residue; d: D form. Dmt = Cc1cc(O)cc(C)c1C[C@H](N)C(=O)O

Experiments:
[1] = test system: several mammalian cell types; settings: cited from earlier work
[2] = 0.01-0.25 mg/kg/hr IV, five days
Method: Control mitochondrial myopathy subjects (Group 4) received equal volumes of saline solution administered for two hours. All groups were treated for five consecutive days. The demographics of the subjects are disclosed in Table 5.

Molecule | penetration of the plasma membrane [1] | serious adverse events [2] | vital signs, electrocardiograms, clinical laboratory findings [2]
2′,6′-Dmt-D-Arg-Phe-Lys-NH2 | readily penetrates the plasma membrane of several mammalian cell types in an energy-independent manner |  | 
Cc1cc(O)cc(C)c1C[C@H](NC(=O)[C@H](N)CCCNC(=N)N)C(=O)N[C@@H](CCCCN)C(=O)N[C@@H](Cc1ccccc1)C(N)=O [D-Arg-2′,6′-Dmt-Lys-Phe-NH2] (H-[dR][Dmt]KF-NH2) |  | None of the test subjects exhibited any serious adverse events | no significant trends changes
